Source: patent US6846933B1, “Antimycobacterial compounds and method for making the same” (priority 2000, dated 2005)
Values after ≈ are worked out from the molar mass of the structure shown. Where two headings read alike, the source gives them in different places.

Experiments:
[1] = system: Mycobacterium tuberculosis H37Rv (ATCC 27294); assay: TAACF MIC / primary screen vs M. tuberculosis H37Rv (MABA or BACTEC 460); assay type: cell-based; details: for MIC: Mycobacterium tuberculosis
M. tuberculosis TAC-R = assay: microbe, parasite or virus in culture; assay type: cell-based; details: Mycobacterium tuberculosis, Bactec, strain panel
M. avium (ATCC 25291) = assay: TAACF M. avium assay; assay type: cell-based, Mycobacterium avium; parameters: % Inhibition: concentration or dose not given beside the values; details: for MIC: Mycobacterium avium, ATCC25291, M. avium assay; for % Inhibition: M. avium assay
[2] = system: M. tuberculosis Erdman (ATCC 35801) in monolayers of mouse bone marrow macrophages; assay: Killing of M. tuberculosis Erdman in mouse bone marrow macrophages; assay type: cell-based; details: Mycobacterium tuberculosis, Bone marrow macrophage, 168 h
M. tuberculosis Erdman = assay: MIC vs M. tuberculosis Erdman; assay type: cell-based; details: Mycobacterium tuberculosis
VERO cells = assay: Cytotoxicity in VERO cells (MTT, 72 hours); assay type: cell-based; details: Chlorocebus sabaeus
M. tuberculosis EMB-R = assay: microbe, parasite or virus in culture; assay type: cell-based; details: Mycobacterium tuberculosis, read-out: MIC EMB-R (ug/ml)
[3] = Quantitative estimate of relative lipophilicity (chloroform/water partitioning vs isoniazid); details: ratio chloroform:water compared to same ratio for isoniazid as standard (INH = unity)
[4] = M. tuberculosis assay, Table 13, primary screen
[5] = M. tuberculosis assay, Table 13, primary screen, read-out: MIC
[6] = BACTEC, Tables 2 and 3, read-out: MIC
[7] = Bactec, strain panel, read-out: MIC H37Rv
[8] = M. tuberculosis assay, Bactec, Tables 6, 7, 8, read-out: MIC
[9] = M. tuberculosis assay, Tables 4 and 5, read-out: MIC
[10] = M. tuberculosis assay, Bactec, Tables 6, 7, 8
[11] = Bactec, Tables 10-12, read-out: MIC
[12] = Alamar, Table 11, read-out: MIC
[13] = Bactec, strain panel, read-out: MIC Erdman
[14] = M. tuberculosis assay, Alamar, Table 7

CC(=O)N1N=C(c2ccncc2)OC1(C)c1ccccc1 (centres unmarked) [Sample ID 122487]
% Inhibition [1, 4]: 98%
MIC [1, 5]: < 12.5 µg/mL

COc1ccc(/C=N/NC(=O)c2ccncc2)cc1 [Sample ID 102866]
MIC (M. tuberculosis TAC-R): < 3.25 µg/mL
MIC (M. avium (ATCC 25291); [6]): 3.25 µg/mL (≈ 12.7 µM)
EC90 [2]: 0.04 µg/mL (≈ 0.157 µM)
EC99 [2]: 0.15 µg/mL
MIC [1, 7]: < 0.05 µg/mL
MIC [1, 8]: 0.1 µg/mL (≈ 0.392 µM)
MIC [1, 9]: 0.1 µg/mL (≈ 0.392 µM)
MIC (M. tuberculosis Erdman; read-out: MIC Erdman (ug/ml)): < 0.05 µg/mL

CO[C@H]1/C=C/O[C@@]2(C)Oc3c(C)c(O)c4c(O)c(c(/C=N/N5CCN(C)CC5)c(O)c4c3C2=O)NC(=O)/C(C)=C\C=C\[C@H](C)[C@H](O)[C@@H](C)[C@@H](O)[C@@H](C)[C@H](OC(C)=O)[C@@H]1C [RMP, rifampin, reference compound]
IC50 (VERO cells): 68 µg/mL (≈ 82.6 µM)
MIC ([1]; read-out: MIC of RMP vs H37Rv (Comment, Table 9), control in MBC test): 0.5 µg/mL
% inhibition vs. M. tuberculosis (RMP control, Comment) ([1]; RMP at its MIC 0.25 μg/ml): 99%

O=C(NN=C1CCCC1)c1ccncc1 [Sample ID 111298]
MIC (M. tuberculosis EMB-R): 0.05 µg/mL (≈ 0.246 µM)
EC90 [2]: 0.03 µg/mL (≈ 0.148 µM)
EC99 [2]: 0.16 µg/mL
MIC [1, 10]: 0.02 µg/mL (≈ 0.0984 µM)
MIC [1, 9]: 0.025 µg/mL (≈ 0.123 µM)
MIC ([1]; read-out: MIC H37Rv (ug/ml), Bactec, strain panel): 0.05 µg/mL (≈ 0.246 µM)
MIC (M. tuberculosis Erdman; read-out: MIC Erdman (ug/ml)): 0.05 µg/mL (≈ 0.246 µM)

CCCCCCCCCCCC/C=N/NC(=O)c1ccncc1 [Sample ID 102094]
EC90 [2]: 0.08 µg/mL (≈ 0.252 µM)
EC99 [2]: > 3.2 µg/mL
MIC [1, 9]: 0.2 µg/mL (≈ 0.63 µM)

CC(=O)NNC(=O)c1ccncc1
melting point: 158 to 160 °C

CC(=O)N1N=C(c2ccncc2)OC1c1c(F)cccc1F (centres unmarked) [Sample ID 122492]
% Inhibition [1, 4]: 99%
MIC [1, 5]: < 12.5 µg/mL

CC(=O)N1N=C(c2ccncc2)OC1c1ccc(Cl)c([N+](=O)[O-])c1 (centres unmarked) [Sample ID 122491]
% Inhibition [1, 4]: 98%
MIC [1, 5]: < 12.5 µg/mL

COc1ccccc1/C=N/NC(=O)c1ccncc1 [Sample ID 102871]
EC90 [2]: 0.06 µg/mL (≈ 0.235 µM)
EC99 [2]: 0.23 µg/mL
MIC [1, 9]: 0.2 µg/mL (≈ 0.783 µM)

CC(C)=NNC(=O)c1ccncc1 [Sample ID 102752]
EC90 [2]: 0.03 µg/mL (≈ 0.169 µM)
EC99 [2]: 0.14 µg/mL
MIC [1, 9]: 0.1 µg/mL (≈ 0.564 µM)

CC(=O)N1N=C(c2ccncc2)OC1c1c(Cl)cccc1Cl (centres unmarked) [Oxadiazoline Example 4, 2-(2,6-Dichlorophenyl)-3-acetyl-5-(4-pyridyl)-1,3,4-oxadiazoline]
Relative Lipophilicity [3]: 35,667

O=CNNC(=O)c1ccncc1
melting point: 94 to 96 °C

O=C(NN=Cc1ccccc1[N+](=O)[O-])c1ccncc1 [Schiff Base Example 47, Isonicotinoylhydrazone of 2-Nitrobenzaldehyde]
Relative Lipophilicity [3]: 316

O=C(N/N=C/c1ccccc1)c1ccncc1 [Sample ID 102787]
EC90 [2]: 0.04 µg/mL (≈ 0.178 µM)
EC99 [2]: 0.12 µg/mL
MIC [1, 9]: 0.1 µg/mL (≈ 0.444 µM)

O=C(NNC(=S)Nc1ccc(Cl)cc1)c1ccncc1 [Sample ID 126719]
% Inhibition (M. avium (ATCC 25291); Bactec, Tables 10-12): 84%
MIC (M. avium (ATCC 25291); Bactec, Tables 10-12): > 12.5 µg/mL

CCCCOc1ccc(/C=N/NC(=O)c2ccncc2)cc1 [Sample ID 102090]
EC90 [2]: 0.18 µg/mL (≈ 0.605 µM)
EC99 [2]: > 1.6 µg/mL
MIC [1, 9]: 0.1 µg/mL (≈ 0.336 µM)

O=C(N/N=C/c1ccc(F)cc1)c1ccncc1 [Sample ID 103167]
EC90 [2]: 0.02 µg/mL (≈ 0.0822 µM)
EC99 [2]: 0.07 µg/mL
MIC [1, 9]: 0.1 µg/mL (≈ 0.411 µM)

CCCC(=O)NNC(=O)c1ccncc1
melting point: 142 °C

O=C(NN=C1CCCCC1)c1ccncc1 [Sample ID 102674]
EC90 [2]: 0.08 µg/mL (≈ 0.368 µM)
EC99 [2]: > 0.4 µg/mL
MIC [1, 9]: 0.03 µg/mL (≈ 0.138 µM)

COc1cc(/C=N/NC(=O)c2ccncc2)ccc1O [Sample ID 102858]
EC90 [2]: 0.03 µg/mL (≈ 0.111 µM)
EC99 [2]: 0.12 µg/mL
MIC [1, 9]: 0.2 µg/mL (≈ 0.737 µM)

CC(=O)N1N=C(c2ccncc2)OC1c1ccc(Cl)c(Cl)c1 (centres unmarked) [Sample ID 123669]
% Inhibition (M. avium (ATCC 25291); Bactec, Tables 10-12): 65%
MIC (M. avium (ATCC 25291); [11]): > 12.5 µg/mL

O=C(N/N=C/c1cc(Cl)ccc1Cl)c1ccncc1 [Sample ID 117150]
MIC (M. tuberculosis TAC-R): > 3.25 µg/mL
% Inhibition (M. avium (ATCC 25291); Alamar, Table 11): 0%
MIC (M. avium (ATCC 25291); [12]): > 12.5 µg/mL
MIC (M. avium (ATCC 25291); [6]): > 3.25 µg/mL
MIC [1, 7]: < 0.05 µg/mL
MIC [1, 8]: 0.1 µg/mL (≈ 0.34 µM)
MIC (M. tuberculosis Erdman; read-out: MIC Erdman (ug/ml)): < 0.05 µg/mL

CC(C)=CCCC(C)C/C=N/NC(=O)c1ccncc1 (centres unmarked) [Sample ID 102044]
MIC (M. tuberculosis TAC-R): 3.13 µg/mL (≈ 11.4 µM)
MIC (M. avium (ATCC 25291); [6]): 0.78 µg/mL (≈ 2.85 µM)
EC90 [2]: 0.02 µg/mL (≈ 0.0732 µM)
EC99 [2]: 0.08 µg/mL
MIC [1, 7]: < 0.1 µg/mL
MIC [1, 8]: 0.2 µg/mL (≈ 0.732 µM)
MIC [1, 9]: 0.2 µg/mL (≈ 0.732 µM)
MIC (M. tuberculosis Erdman; [13]): < 0.1 µg/mL

O=C(NNC(=S)Nc1ccccc1)c1ccncc1 [Sample ID 122697]
% Inhibition [1, 4]: 79%
MIC [1, 5]: > 12.5 µg/mL

O=C(N/N=C/c1cccc(/C=N/NC(=O)c2ccncc2)c1)c1ccncc1 [Sample ID 102043]
EC90 [2]: 0.04 µg/mL (≈ 0.107 µM)
EC99 [2]: > 0.8 µg/mL
MIC [1, 9]: 0.05 µg/mL (≈ 0.134 µM)

CCOC(=O)C/C(C)=N/NC(=O)c1ccncc1 [Sample ID 101743]
EC90 [2]: 0.01 µg/mL (≈ 0.0401 µM)
EC99 [2]: > 3.2 µg/mL
MIC [1, 9]: 0.2 µg/mL (≈ 0.802 µM)

O=C(N/N=C/c1ccc(Cl)c(Cl)c1)c1ccncc1 [Sample ID 122490]
% Inhibition (M. avium (ATCC 25291); Bactec, Tables 10-12): 20%
MIC (M. avium (ATCC 25291); [11]): > 12.5 µg/mL
IC50 (VERO cells): > 10 µg/mL
% Inhibition [1, 14]: 99%
MIC ([1]; M. tuberculosis assay, Alamar, Tables 7 and 9, read-out: MIC): < 0.2 µg/mL

O=C(NNC(=S)Nc1ccc(Br)cc1)c1ccncc1 [Sample ID 125304]
% Inhibition (M. avium (ATCC 25291); Bactec, Tables 10-12): 15%
MIC (M. avium (ATCC 25291); [11]): > 12.5 µg/mL

CCCCC(=O)NNC(=O)c1ccncc1
melting point: 162 °C

O=C(N/N=C/c1c(F)cccc1F)c1ccncc1 [Sample ID 122489]
% Inhibition (M. avium (ATCC 25291); Bactec, Tables 10-12): 45%
MIC (M. avium (ATCC 25291); [11]): > 12.5 µg/mL
IC50 (VERO cells): > 125 µg/mL
% Inhibition [1, 14]: 99%
MIC ([1]; M. tuberculosis assay, Alamar, Tables 7 and 9): < 0.2 µg/mL

CC(=O)N1N=C(c2ccncc2)OC1c1ccccc1[N+](=O)[O-] (centres unmarked) [Sample ID 123667]
% Inhibition [1, 4]: 38%
MIC [1, 5]: > 12.5 µg/mL

CC(=O)N1N=C(c2ccncc2)OC1c1c(Cl)cccc1Cl (centres unmarked) [Sample ID 117899]
% Inhibition (M. avium (ATCC 25291); Alamar, Table 11): 12%
MIC (M. avium (ATCC 25291); [12]): > 12.5 µg/mL

CC(/C=N/NC(=O)c1ccncc1)=C\c1ccccc1 [Sample ID 103062]
EC90 [2]: 0.03 µg/mL (≈ 0.113 µM)
EC99 [2]: 0.15 µg/mL
MIC [1, 9]: 0.2 µg/mL (≈ 0.754 µM)

CC1C/C(=N/NC(=O)c2ccncc2)CC(C)(C)C1 (centres unmarked) [Sample ID 114353]
MIC (M. tuberculosis EMB-R): < 0.1 µg/mL
MIC [1, 7]: < 0.1 µg/mL
MIC [1, 10]: > 6.25 µg/mL
MIC (M. tuberculosis Erdman; [13]): < 0.1 µg/mL
